Measurements: patent US20130203649A1, “INHIBITORS OF TLR SIGNALING BY TARGETING TIR DOMAIN INTERFACES” (UNIVERSITY OF MARYLAND, BALTIMORE, priority 2012, published 2013)
Where “and” joins values, the source holds several entries; their conditions need not be identical. Identical values can stand only once. Entries after “also recorded” stand apart in the source; their conditions may differ. Residues, ends and D or L forms follow the SMILES beside them. No end group written: not given here.

Key:
TLR2 = target: T1, TLR2 (Mus musculus, UniProt Q9QUN7); assay: Inhibition of TLR2 signaling in thioglycollate-elicited mouse macrophages (effective concentration, TLR2 agonists P3C/P2C); assay type: cell-based; settings: for Effective conc.: TLR2 pathway, thioglycollate-elicited mouse macrophages
T1 construct: Primary peritoneal macrophages were obtained by peritoneal lavage; endogenous in cells; host or cells: thioglycollate-elicited mouse peritoneal macrophages
T1 sequence (Q9QUN7 25-784): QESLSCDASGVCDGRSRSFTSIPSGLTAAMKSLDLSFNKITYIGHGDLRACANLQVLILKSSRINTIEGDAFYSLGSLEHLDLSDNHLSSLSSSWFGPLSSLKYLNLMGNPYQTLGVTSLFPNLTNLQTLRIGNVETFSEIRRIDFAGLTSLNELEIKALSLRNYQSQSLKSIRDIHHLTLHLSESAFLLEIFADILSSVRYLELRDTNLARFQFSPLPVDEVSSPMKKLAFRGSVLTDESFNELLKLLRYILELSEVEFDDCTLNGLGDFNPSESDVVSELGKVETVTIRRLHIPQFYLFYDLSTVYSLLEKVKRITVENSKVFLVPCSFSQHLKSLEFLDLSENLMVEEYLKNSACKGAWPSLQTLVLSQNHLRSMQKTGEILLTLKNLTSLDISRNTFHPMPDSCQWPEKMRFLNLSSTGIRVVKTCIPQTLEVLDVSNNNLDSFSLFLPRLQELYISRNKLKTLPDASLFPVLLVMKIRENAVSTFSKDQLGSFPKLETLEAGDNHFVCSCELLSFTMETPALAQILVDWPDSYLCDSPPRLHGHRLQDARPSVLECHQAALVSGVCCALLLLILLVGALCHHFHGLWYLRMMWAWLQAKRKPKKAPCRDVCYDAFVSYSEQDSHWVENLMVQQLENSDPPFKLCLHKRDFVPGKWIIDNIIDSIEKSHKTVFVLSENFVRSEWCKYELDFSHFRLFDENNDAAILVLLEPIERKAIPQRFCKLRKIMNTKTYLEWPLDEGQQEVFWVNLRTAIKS
Procedure: (§1) C57BL/6J mice were obtained from The Jackson Laboratory (Bar Harbor, Me.). Primary peritoneal macrophages were obtained by peritoneal lavage 4 days after intraperitoneal injection (3 ml) of sterile 3% thioglycolate broth. Washed cells were resuspended in RPMI 1640 which contained 2% FBS, 1% penicillin:streptomycin and 2 mM L-glutamine. After plating, cells were incubated overnight at 37° C. and then washed with PBS to remove non-adherent cells. Cells were exposed to peptides 30 min before stimulation with a TLR agonist.
(§2) Protein-free Escherichia coli K235 LPS was used at final concentration of 10 ng/ml to stimulate cells. S-[2,3-bis(palmitoyloxy)-(2-RS)-propyl]-N-palmitoyl-(R)-Cys-Ser-Lys4-OH (P3C) and S-[2,3-bis(palmitoyloxy)-(2-RS)-propyl]-[R]-Cys-Ser-Lys4-OH (P2C) were purchased from EMC microcollections GmbH (Tubingen, Germany) and used for cell stimulation at 500 and 50 ng/ml, respectively. Phospho-ERK1/2 and phospho-JNK1/2 rabbit Abs were obtained from Cell Signaling Technology, Inc. β-actin rabbit Ab were from SantaCruz Biotechnology, Inc.
(§3) Because of the role TRAP plays in TLR2 signaling, TIRAP TIR-derived decoy peptide effects on TLR2-induced cytokine mRNA expression were examined. Thioglycollate-elicited mouse macrophages were stimulated either by P2C, an agonist that induces signaling through TLR2/TLR6 heterodimerization, or P3C, a TLR2/TLR1 agonist, and effects of TIRAP TR-derived decoy peptides on induction of cytokine mRNA were examined. […] To confirm the inhibitory effect of TR3 and TR6 on P3C-induced signaling, IL-6 and TNF-α concentration was measured in macrophage supernatants collected 5 h after stimulation of cells with P3C. […] Concordantly, both TR3 and TR6 diminished the P3C-induced ERK phosphorylation (FIG. 3D).
(§4) C57BL/6J mice were obtained from The Jackson Laboratory (BarHarbor, Me.). Harvesting, culturing, and stimulation of peritoneal macrophages were described in previous publications (1, 18, 19). Escherichia coli K235 LPS (34) was used at the final concentration of 100 ng/ml. The 2,3-bis(palmitoyloxy)-(2-RS)-propyl-N-palmitoyl-(R)-Cys-Ser-Lys4-OH (P3C) and S[2,3-bis(palmitoyloxy)-(2-RS)-propyl]-[R]-Cys-Ser-Lys4-OH (P2C) (EMC Microcollections, Tubingen, Germany) were used at 500 and 50 ng/ml, respectively. Oligonucleotide (ODN) 1668 and low m.w. polyinosinic-polycytidylic acid [poly(I:C)] in complex with LyoVec were obtained from InvivoGen; these agonists were used at 2.5 μM and 400 ng/ml, respectively.

TLR2/TLR1 heterodimer = target: T2, TLR2/TLR1 heterodimer (Mus musculus, UniProt Q9QUN7); assay: P3C-induced cytokine mRNA expression in mouse macrophages; assay type: cell-based; settings: peptide 30 min; P3C 500 ng/ml 1 hour (FIG. 15A)
T2 construct: endogenous in cells; host or cells: thioglycollate-elicited mouse peritoneal macrophages
T2 sequence (Q9QUN7 25-784, one chain of several): as the sequence (Q9QUN7 25-784) above
Excerpt: (§5) Total cellular RNA was isolated using Tripure from Roche (San Francisco, Calif.) following manufacture's protocol. RNA was then reverse transcribed using AMV Reverse Transcriptase from Promega (Madison, Wis.) with poly-T priming as per manufacturer's directions. cDNA was then quantified by real-time PCR using Applied Biosystems Fast SYBR Green PCR Master Mix and an ABI Prism 7500HT cycler. Primers used for detection: hypoxanthine phosphoribosyltransferase (HPRT) (forward: […] (SEQ ID NO:51), reverse: […] (SEQ ID NO:52)), TNFα (forward: […] (SEQ ID NO:53), reverse: […] (SEQ ID NO:54)), IL-1β (forward: […] (SEQ ID NO:55), reverse: […] (SEQ ID NO:56)), IFNβ (forward: […] (SEQ ID NO:57), reverse: CTCGGACCACCATCCAGG (SEQ ID NO:58)) and RANTES (forward: […] (SEQ ID NO:59), reverse: […] (SEQ ID NO:60)). The primers were designed using Primer Express 2.0 (Applied Biosystems). Using HPRT as reference, the ΔCt method was used to calculate relative gene expression. One-way ANOVA was preformed, as well as Dunnett's multiple comparison post hoc test with a p≦0.01 selected as the level of significance.
as §2, §3, §4

TLR2/TLR6 heterodimer = target: T3, TLR2/TLR6 heterodimer (Mus musculus, UniProt Q9QUN7); assay: P2C-induced cytokine mRNA expression in mouse macrophages; assay type: cell-based; settings: peptide 30 min; P2C 50 ng/ml 1 hour (FIG. 15B)
T3 construct: endogenous in cells; host or cells: thioglycollate-elicited mouse peritoneal macrophages
T3 sequence (Q9QUN7 25-784, one chain of several): as the sequence (Q9QUN7 25-784) above
Excerpt: as §5, §2, §3, §4

TLR4 = assay: Inhibition of TLR4 signaling in thioglycollate-elicited mouse macrophages (effective concentration, overall inhibitory activity); assay type: cell-based; settings: for Effective conc.: TLR4 pathway, thioglycollate-elicited mouse macrophages
Procedure: as §1
TIRAP/Mal functions to facilitate MyD88 recruitment to the activated TLR4 and TLR2, presumably through a simultaneous interaction with receptor and MyD88 TIR domains. Therefore, multiple TIR:TIR interaction sites are expected in TIRAP TIR. The decoy peptide approach was used to obtain leads on the functional protein-protein interfaces within TIRAP/Mal, a TLR adapter protein. To this end, eleven TIRAP TIR-derived decoy peptides were designed to be structurally homologous to the TLR4 TIR-derived decoy peptides used previously (1), so that each peptide represents a non-fragmented patch of the TIRAP TIR surface, with the entire domain encompassed by the set of peptides. The TIRAP TIR-derived decoy peptides were synthesized in tandem with the cell-permeating sequence of Antennapedia homeodomain (21) and each peptide was tested for the ability to inhibit TLR4 and TLR2 signaling in primary mouse macrophages. Peptide sequences and the structural regions they represent are shown in reference (30).
as §4

C57BL/6J mice [1] = assay: In vivo efficiency of decoy peptides (Table 1; LPS challenge in mice); parameters: species or system mouse
Procedure: FIG. 4. Effect of select TRAP decoy peptides on TNF-α and IL-6 in blood following an ip LPS challenge. C57BL/6J mice were injected with TR5, TR6, or TR7 peptide or mock-treated 1 hour before injection of purified E. coli LPS. Peptides and LPS were injected to mice intraperitonealy 10 nmol or 1 μg per gram of animal weight, correspondingly.
(§6) FIG. 10. […] (A-E) C57BL/6J mice were injected i.p. with purified Escherichia coli K235 LPS (1 μg/g) or PBS. Peptides (10 nmol/g of animal weight) were injected i.p. (A, B, D, E) or i.v. (C) 1 h before (A, B, and C) or 30 min after (D, E) i.p. injection of LPS. Data in panels A and D show plasma IL-6 and TNF-α levels measured 2 h after LPS challenge. Peptide TM8/9 was used as a non-inhibitory control peptide. Data represent the means±s.e.m. for 6-12 blood samples obtained in at least three independent experiments. *p<0.01. (F, G) C57BL/6J mice were challenged i.p. with a lethal LPS dose (17.5 μg/g). Peptides (10 nmol/g) were injected i.p. 1 h before LPS challenge. […] The statistical significance of changes in mortality and survival time was determined by the Mantel Cox log-rank test using GraphPad Prism software (Version 5.04). *p<0.01.
(§7) Eight-week-old C57BL/6J mice were injected with 1 or 17.5 μg/g animal weight of E. coli K235 LPS i.p. Peptides reconstituted in PBS were administered i.p. or i.v. Control groups received equivalent volume of solvent (PBS). The blood samples were collected 1, 2, 4, and 8 h, or 2, 8, and 24 h after LPS challenge. The plasma samples were obtained and kept frozen until TNF-α and IL-6 were measured by ELISA. Survival of animals was monitored every 6-16 h after LPS challenge. All animal experiments were carried out with institutional approval.

C57BL/6J mice [2] = assay: Plasma TNF-α and IL-6 after sublethal LPS challenge in C57BL/6J mice; assay type: in vivo, mouse
Procedure: as §6, §7
We next studied whether peptides identified as inhibitory in in vitro tests are effective in vivo. C57BL/6J mice were challenged i.p. with a sublethal LPS dose (1 μg/g animal weight), and plasma TNF-α and IL-6 levels were monitored for 8 h after the challenge. In the first series of experiments, we injected 10 nmol/g TM4 or TM6 i.p. 1 h before LPS challenge. The 10 nmol/g dose corresponds to 38, 41, and 32 mg/kg TM4, TM6, and TM4-ΔC, respectively.

C57BL/6J mice [3] = assay: Survival after lethal LPS challenge in C57BL/6J mice; assay type: in vivo, mouse; settings: LPS 17.5 μg/g i.p.
Procedure: as §6, §7
We next studied whether inhibitory peptides protect mice from a lethal LPS challenge. TR6, a previously described inhibitory peptide derived from the third helical region of TRAP (30), was also included in this study as an additional control. C57BL/6J mice were injected i.p. with 17.5 μg/g LPS. This dose induced 100% mortality in the control group (FIG. 10F). […] The peptide-treated survivors appeared active and healthy at the time the experiments were terminated, 7 d after injection of LPS.

MAPK (ERK, JNK, p38) = assay: MAPK activation by peptide alone, macrophages without TLR agonist; assay type: cell-based, mouse; settings: peptide alone; data not shown
Procedure: Neither TIRAP peptide activated ERK in cells incubated without a TLR agonist (not shown). […] The mechanism of this differential MAPK activation by select peptides, although interesting, is not understood at this time. Peptides TR9 and TR11 inhibited both ERK and JNK MAPKs (FIG. 1D). Peptide-induced inhibition of ERK persisted over a long period of time.
We next examined whether TRAM peptides inhibit the TLR4-mediated p38, ERK, and JNK MAPK activation. Murine macrophages pretreated with peptides for 30 min were challenged with LPS. Cell lysates were collected 30 min post-stimulation and analyzed for MAPK phosphorylation by Western analysis. Consistent with peptide effects on steady-state mRNA, both TM4 and TM6 inhibited activation of all three MAPKs (FIG. 5C). The inhibition of MAPKs by TM4 or TM6 was long lasting; it persisted for at least 1 h after LPS stimulation (data not shown). To characterize further the effects of TRAM peptides on MAPKs, murine macrophages were treated with TRAM peptides, but not challenged by LPS.

Molecule	Effective conc. (TLR2)	Cytokine mRNA expression induced by P3C (TLR2/TLR1 heterodimer)	Cytokine mRNA expression induced by P2C (TLR2/TLR6 heterodimer)	Effective conc. (TLR4)	In vivo efficiency (C57BL/6J mice [1])	other results
CC[C@H](C)[C@H](NC(=O)[C@H](CCCCN)NC(=O)[C@@H](NC(=O)[C@H](CCC(N)=O)NC(=O)[C@@H](N)CCCNC(=N)N)[C@@H](C)CC)C(=O)N[C@@H](Cc1c[nH]c2ccccc12)C(=O)N[C@@H](Cc1ccccc1)C(=O)N[C@@H](CCC(N)=O)C(=O)N[C@@H](CC(N)=O)C(=O)N[C@@H](CCCNC(=N)N)C(=O)N[C@@H](CCCNC(=N)N)C(=O)N[C@@H](CCSC)C(=O)N[C@@H](CCCCN)C(=O)N[C@@H](Cc1c[nH]c2ccccc12)C(=O)N[C@@H](CCCCN)C(=O)N[C@@H](CCCCN)C(=O)N[C@@H](CCCNC(=N)N)C(=O)N[C@@H](CCCCN)C(=O)N1CCC[C@H]1C(=O)N[C@@H](CCCCN)C(=O)N[C@@H](CCCCN)C(=O)N[C@@H](C)C(=O)N1CCC[C@H]1C(=O)N[C@@H](CS)C(=O)N[C@@H](CCCNC(=N)N)C(=O)N[C@@H](CC(=O)O)C(=O)N[C@H](C(=O)N[C@@H](CS)C(=O)N[C@@H](Cc1ccc(O)cc1)C(=O)N[C@@H](CC(=O)O)C(=O)O)C(C)C [Peptide 2R1] (H-RQIKIWFQNRRMKWKKRKPKKAPCRDVCYD-OH; N-terminus and C-terminus assumed)	40 µM	inhibit	inhibit			
RQIKIWFQNRRMKWKKCLQDAIDHS [TF5-ΔC]				20 µM	Yes, i.p.	
RQIKIWFQNRRMKWKKIVFAEMPCG [TM4-ΔC]				10 µM	yes, i.p.	Inhibitory activity of modified TM4 peptides on TLR4-driven MAPK activation and cytokine mRNA (FIG. 8) (TLR4; relative ranking among TM4 variants): close to that of TM4; Plasma TNF-α and IL-6 (C57BL/6J mice [2]; 10 nmol/g i.p. 30 min after LPS, 2 h after LPS or thereafter): markedly diminished; Circulating TNF-α and IL-6 (C57BL/6J mice [2]; 10 nmol/g i.p. 30 min after LPS, measured 1 h after LPS): did not affect; Circulating IL-6 and TNF-α levels (C57BL/6J mice [2]; 10 nmol/g i.v., LPS i.p., 8-h observation): significantly lowered; Efficiency with respect to circulating IL-6 at 4- or 8-h time points (C57BL/6J mice [2]; dose increased to 25 nmol/g): did not augment; LPS-induced systemic cytokine response in vivo (C57BL/6J mice [2]; sublethal LPS 1 μg/g, peptide 10 nmol/g): strongly suppress; also recorded: effectively suppress; Survival after lethal LPS challenge (C57BL/6J mice [3]; peptide 10 nmol/g i.p. 1 h before): rescued all animals and 10 of 10 and protect; Survival after lethal LPS challenge, therapeutic administration (C57BL/6J mice [3]; peptide i.p. 3 h after LPS): Five of seven
RQIKIWFQNRRMKWKKPQRFCKLRKIMNT [Peptide 2R9]	40 µM	inhibit	inhibit			TLR2-induced ERK activation (TLR2; FIG. 16C): strongly inhibits
TM3: TRAM decoy peptide: Antennapedia sequence at N terminus of QNDFGIRPG (RQIKIWFQNRRMKWKKQNDFGIRPG)						p38 and ERK MAPK activation without LPS stimulation (MAPK (ERK, JNK, p38)): weakly activated
